Drawing on patent US6531477B1, “6-substituted pyrazolo [3,4-d] pyrimidin-4-ones useful as cyclin dependent kinase inhibitors” (DuPont Pharmaceuticals Company, priority 1998, dated 2003), this text covers melting point for 47 molecules.

Turning to `COc1cccc(Cc2nc3n(-c4c(Cl)cc(C=O)cc4Cl)[nH]c(C(C)C)c-3c(=O)n2)c1` [Example 138, 1-(2,6-Dichloro-4-formylphenyl)-3-isopropyl-6-(3-methoxybenzyl)pyrazolo[3,4-d]pyrimidin-4-one], the melting point (usually the temperature of the solid-liquid transition) was in the range of 212 to 214 °C.
Take `CC(C)c1nn(-c2ccccc2Cl)c2nc(Cc3cccc(O)c3)[nH]c(=O)c12` [Example 143]: the melting point was in the range of 227 to 228 °C.
Regarding `CSc1nn(-c2ccccc2Cl)c2nc(Cc3ccc(O)cc3)[nH]c(=O)c12` [Example 149], the melting point lay within 243 to 244 °C.
Consider `COc1ccc(Cc2nc3c(c(SC)nn3-c3ccccc3Cl)c(=O)[nH]2)cc1` [Example 150], for which the melting point fell in the range of 227 to 228 °C.
As for `CCc1nn(-c2ccccc2Br)c2nc(Cc3cccc(OC)c3)[nH]c(=O)c12` [Example 151], the melting point lay within 178 to 180 °C.
The molecule `CCc1nn(-c2ccccc2Br)c2nc(Cc3ccc(N)cc3)[nH]c(=O)c12` [Example 152] came in with a melting point of 246 to 249 °C.
In the case of `CCc1nn(-c2ccccc2Br)c2nc(Cc3cccc(O)c3)[nH]c(=O)c12` [Example 153], the melting point is 199 to 201 °C.
Next, `CCc1nn(-c2ccccc2F)c2nc(Cc3cccc(OC)c3)[nH]c(=O)c12` [Example 154]: 193 to 194 °C; `CCc1nn(-c2ccccc2F)c2nc(Cc3cccc(O)c3)[nH]c(=O)c12` [Example 155]: 235 to 237 °C; `CCc1nn(-c2ccccc2F)c2nc(Cc3ccc(N)cc3)[nH]c(=O)c12` [Example 157]: 231 to 233 °C.
Turning to `CCc1nn(-c2c(Cl)cc(C(F)(F)F)cc2Cl)c2nc(Cc3cccc(OC)c3)[nH]c(=O)c12` [Example 166], the melting point lay in the range of 192 to 193 °C.
In the case of `CCc1nn(-c2c(Cl)cc(C(F)(F)F)cc2Cl)c2nc(Cc3ccc(OC)cc3)[nH]c(=O)c12` [Example 168], the melting point fell in the range of 240 to 241 °C.
As for `CCc1nn(-c2c(Cl)cc(Br)cc2Cl)c2nc(Cc3ccc(O)cc3)[nH]c(=O)c12` [Example 169], the figure is 284 to 286 °C; as for `CCc1nn(-c2c(Cl)cc(Br)cc2Cl)c2nc(Cc3cccc(O)c3)[nH]c(=O)c12` [Example 170], 242 to 244 °C; as for `CCc1nn(-c2c(Cl)cccc2Cl)c2nc(Cc3ccc(O)cc3)[nH]c(=O)c12` [Example 171], 262 to 263 °C.
`CCc1nn(-c2c(Cl)cccc2Cl)c2nc(Cc3cccc(O)c3)[nH]c(=O)c12` [Example 173] showed a melting point of 242 to 244 °C.
As for `CCc1nn(-c2c(Cl)cc(Br)cc2Cl)c2nc(Cc3cccc(OC)c3)[nH]c(=O)c12` [Example 174], the melting point lay in the range of 232 to 233 °C.
Take `CCc1nn(-c2c(Cl)cc(Br)cc2Cl)c2nc(Cc3ccc(OC)cc3)[nH]c(=O)c12` [Example 175]: the melting point lay within 252 to 253 °C.
`CCc1nn(-c2c(Cl)cccc2Cl)c2nc(Cc3ccc(OC)cc3)[nH]c(=O)c12` [Example 176] gave a melting point of 220 to 222 °C.
For `CCc1nn(-c2c(Cl)cccc2Cl)c2nc(Cc3cccc(OC)c3)[nH]c(=O)c12` [Example 177], the melting point was in the range of 186 to 187 °C.
With `CSc1nn(-c2c(F)cccc2Cl)c2nc(Cc3ccc(O)cc3)[nH]c(=O)c12` [Example 178], the melting point is 267 to 268 °C.
On to `CSc1nn(-c2c(F)cccc2Cl)c2nc(Cc3cccc(O)c3)[nH]c(=O)c12` [Example 179], for which the melting point lay within 252 to 253 °C.
The molecule `CSc1nn(-c2c(Cl)cc(Br)cc2Cl)c2nc(Cc3ccc(O)cc3)[nH]c(=O)c12` [Example 180] yielded a melting point of 255 to 256 °C.
As for `COc1ccc(Cc2nc3c(c(SC)nn3-c3c(F)cccc3Cl)c(=O)[nH]2)cc1` [Example 181], the figure is 193 to 194 °C; as for `COc1cccc(Cc2nc3c(c(SC)nn3-c3c(F)cccc3Cl)c(=O)[nH]2)c1` [Example 182], 244 to 245 °C.
As for `COc1ccc(Cc2nc3c(c(SC)nn3-c3c(Cl)cc(Br)cc3Cl)c(=O)[nH]2)cc1` [Example 183], the figure is 267 to 268 °C; as for `CCc1nn(-c2c(C)cccc2Cl)c2nc(Cc3ccc(O)cc3)[nH]c(=O)c12` [Example 184], 255 to 256 °C; as for `COc1ccc(Cc2nc3c(c(SC)nn3-c3c(C)cc(Cl)cc3Cl)c(=O)[nH]2)cc1` [Example 185], 252 to 255 °C.
The molecule `COc1ccc(Cc2nc3c(c(SC)nn3-c3c(C)cccc3Cl)c(=O)[nH]2)cc1` [Example 186] returned a melting point of 233 to 235 °C.
`CCc1nn(-c2c(C)cc(Cl)cc2Cl)c2nc(Cc3ccc(OC)cc3)[nH]c(=O)c12` [Example 187]: the melting point fell in the range of 245 to 246 °C.
Regarding `CSc1nn(-c2c(C)cc(Cl)cc2Cl)c2nc(Cc3ccc(O)cc3)[nH]c(=O)c12` [Example 188], the melting point is 277 to 279 °C.
`CSc1nn(-c2c(C)cccc2Cl)c2nc(Cc3ccc(O)cc3)[nH]c(=O)c12` [Example 190] registered a melting point of 264 to 266 °C.
The molecule `CCc1nn(-c2c(C)cccc2Cl)c2nc(Cc3ccc(OC)cc3)[nH]c(=O)c12` [Example 191] yielded a melting point of 220 to 221 °C.
For the molecule `CCc1nn(-c2c(C)cccc2Cl)c2nc(Cc3ccc(O)cc3)[nH]c(=O)c12` [Example 192], the melting point lay within 257 to 259 °C.
On to `CCc1nn(-c2c(C)cccc2Cl)c2nc(Cc3cccc(OC)c3)[nH]c(=O)c12` [Example 193], for which the melting point is 188 to 190 °C.
The molecule `CCc1nn(-c2c(Cl)cc(C(=O)O)cc2Cl)c2nc(Cc3ccc(OC)cc3)[nH]c(=O)c12` [Example 195] displayed a melting point of 292 to 294 °C.
`CCc1nn(-c2c(Cl)cc(C(=O)O)cc2Cl)c2nc(Cc3ccc(O)cc3)[nH]c(=O)c12` [Example 196] yielded a melting point of 308 to 310 °C.
`CCc1nn(-c2c(Cl)cc(C(=O)O)cc2Cl)c2nc(Cc3cccc(O)c3)[nH]c(=O)c12` [Example 198] yielded a melting point of 280 to 282 °C.
For `Cc1cccc(Cl)c1-n1nc(C(C)C)c2c(=O)[nH]c(Cc3ccc(N)cc3)nc21` [Example 199], the melting point is 205 to 206 °C.
`CCc1nn(-c2c(Cl)cc(C(=O)NC)cc2Cl)c2nc(Cc3ccc(OC)cc3)[nH]c(=O)c12` [Example 201]: the melting point lay in the range of 278 to 280 °C.
As for `CCc1nn(-c2c(Cl)cc(C(=O)O)cc2Cl)c2nc(Cc3ccc(N)cc3)[nH]c(=O)c12` [Example 205], the figure is 226 to 228 °C.
For `COc1cccc(Cc2nc3c(c(CO)nn3-c3c(Cl)cc(Cl)cc3Cl)c(=O)[nH]2)c1` [Example 208], the melting point was 227 to 229 °C.
Next, `Cc1cc(Cl)cc(Cl)c1-n1nc(C(C)C)c2c(=O)[nH]c(Cc3ccc(N)cc3)nc21` [Example 217]: 212 to 213 °C; `COc1cccc(Cc2nc3c(c(C(C)C)nn3-c3c(Cl)cc(S(N)(=O)=O)cc3Cl)c(=O)[nH]2)c1` [Example 225]: 244 to 245 °C.
Regarding `CCc1nn(-c2cc(C(F)(F)F)ccc2Cl)c2nc(Cc3cccc(O)c3)[nH]c(=O)c12` [Example 227], the melting point lay within 227 to 229 °C.
Molecule `CCNC(=O)c1cc(Cl)c(-n2nc(CC)c3c(=O)[nH]c(Cc4cccc(OC)c4)nc32)c(Cl)c1` [Example 236] returned a melting point of 226 to 228 °C.
The molecule `CCc1nn(-c2c(Cl)cc(C(=O)NC(C)(C)C)cc2Cl)c2nc(Cc3cccc(OC)c3)[nH]c(=O)c12` [Example 238] gave a melting point of 222 to 224 °C.
